In brackets after ≈: the same amount, converted by molar mass. Several values for one entry are separate records, joined by “and”; a condition that tells them apart may be missing. Equal values may be shown once. Read-outs that look alike come from different tables or passages of the source.
Tests used:
[1] = test system: wild type M. tuberculosis; type: cell-based, Mycobacterium tuberculosis
M. avium complex [2] = conditions: statement in discussion; cited from earlier work
Staphylococcus aureus = assay: microbe, parasite or virus in culture; type: cell-based; conditions: Staphylococcus aureus including methicillin-resistant strains
M. fortuitum = assay: microbe, parasite or virus in culture; type: cell-based, Mycobacterium fortuitum
[3] = test system: MDR-TB strains and fully drug-susceptible strains; type: cell-based, Mycobacterium tuberculosis
Corynebacterium = assay: microbe, parasite or virus in culture; type: cell-based
M. marinum = assay: microbe, parasite or virus in culture; type: cell-based; conditions: Mycobacterium marinum, read-out: MIC Median values
M. abscessus = assay: microbe, parasite or virus in culture; type: cell-based, Mycobacterium abscessus; conditions: Mycobacteroides abscessus, read-out: MIC Median values
Escherichia coli = type: cell-based; conditions: Gram negative Escherichia coli
M. smegmatis = assay: MIC against M. smegmatis; type: cell-based, Mycobacterium smegmatis; conditions: Mycolicibacterium smegmatis, 7 strains, read-out: MIC Median values
Description: Table. 1 The minimum inhibitory concentrations (MICs) of the lead DARQ compound (J), that inhibited 90% of the growth of different mycobacterial species. the number of strains tested were n=1, unless otherwise indicated.

Nocardia = assay: microbe, parasite or virus in culture; type: cell-based
[4] = test system: M. tuberculosis in log-phase growth; type: cell-based, Mycobacterium tuberculosis
Helicobacter pylori = type: cell-based; conditions: Gram negative Helicobacter pylori
M. kansasii = assay: microbe, parasite or virus in culture; type: cell-based; conditions: Mycobacterium kansasii, read-out: MIC Median values
M. bovis = assay: microbe, parasite or virus in culture; type: cell-based; conditions: Mycobacterium tuberculosis variant bovis, read-out: MIC Median values
Streptococcus pneumoniae = type: cell-based; conditions: Gram positive Streptococcus pneumoniae
M. avium complex [5] = assay: microbe, parasite or virus in culture; type: cell-based; conditions: Mycobacterium avium, 7 strains, read-out: MIC Median values
M. tuberculosis = assay: microbe, parasite or virus in culture; type: cell-based; conditions: Mycobacterium tuberculosis
[6] = test system: M. smegmatis transformed with mutant atpE (D32V); type: cell-based; conditions: wild-type M. smegmatis transformed with plasmid containing mutant F0 fragment (D32V); MIC practically identical to resistant strain R09
Enterococcus faecalis = type: cell-based; conditions: Gram positive Enterococcus faecalis
Haemophilus influenzae = type: cell-based; conditions: Gram negative Haemophilus influenzae

Q: For `NNC(=O)c1ccncc1` [isoniazid], which “effect on ATP production (total cellular ATP)” value [1] is on record?
A: no effect

Q: What about the “activity against MAC” value (M. avium complex [2]) of the same compound?
A: no activity

Q: With `COc1nc2ccc(Br)cc2cc1[C@@H](c1ccccc1)[C@@](O)(CCN(C)C)c1cccc2ccccc12` [J] as the compound, how does the MIC (Staphylococcus aureus) read?
A: > 32 µg/mL

Q: What about the “MIC Median values” (M. fortuitum; M. fortuitum resistant to fluoroquinolone, 2 strains) of the same compound?
A: 0.010 µg/mL (≈ 0.018 µM)

Q: And the MIC (M. fortuitum; Mycolicibacterium fortuitum, M. fortuitum, 3 strains, read-out: MIC Median values)?
A: 0.01 µg/mL (≈ 0.018 µM)

Q: And the “isolates of MDR-TB found susceptible” value [3]?
A: 43% and 57%

Q: What about the “strains with MIC below 0.010 μg/ml” value [3] of the same compound?
A: only one of 10

Q: And the susceptibility of strains [3]?
A: all strains were susceptible

Q: What about the MIC (Corynebacterium) of the same compound?
A: 4 µg/mL (≈ 7.2 µM)

Q: And the MIC (M. marinum)?
A: 0.003 µg/mL (≈ 0.0054 µM)

Q: And the MIC (M. abscessus)?
A: 0.25 µg/mL (≈ 0.45 µM)

Q: What about the “effect on ATP production (total cellular ATP)” value [1] of the same compound?
A: dose dependent decrease in ATP production

Q: What about the activity (Escherichia coli) of the same compound?
A: not active

Q: And the MIC (M. smegmatis)?
A: 0.007 µg/mL (≈ 0.0126 µM)

Q: What about the MIC (Nocardia) of the same compound?
A: > 4 µg/mL

Q: And the “reduction in bacterial counts” value [4]?
A: 10^3 log

Q: What about the activity (Helicobacter pylori) of the same compound?
A: not active

Q: And the MIC (M. kansasii)?
A: 0.003 µg/mL (≈ 0.0054 µM)

Q: What about the MIC (M. bovis) of the same compound?
A: 0.003 µg/mL (≈ 0.0054 µM)

Q: What about the activity (Streptococcus pneumoniae) of the same compound?
A: not active

Q: And the MIC (M. avium complex [5])?
A: 0.01 µg/mL (≈ 0.018 µM)

Q: And the MIC (M. tuberculosis; H37RV, read-out: MIC Median values)?
A: 0.03 µg/mL (≈ 0.054 µM)

Q: What about the MIC (M. tuberculosis; read-out: median MIC) of the same compound?
A: 0.06 µg/mL (≈ 0.108 µM)

Q: And the “susceptibility of transformed cells” value [6]?
A: resistant

Q: And the activity (Enterococcus faecalis)?
A: not active

Q: And the activity (Haemophilus influenzae)?
A: not active
